From US7053122B2, “Therapeutic use of aryl amino acid derivatives” (Pfizer Inc, priority 2002, dated 2006)

test system: α2δ subunit derived from porcine brain tissue; assay: radioligand binding assay using [3H]gabapentin and the α2δ subunit; settings: [3H]gabapentin radioligand
Excerpt: The biological activity of the compounds of the invention may be measured in a radioligand binding assay using [^3H]gabapentin and the α2δ subunit derived from porcine brain tissue (Gee N. S., Brown J. P., Dissanayake V. U. K., Offord J., Thurlow R., Woodruff G. N., J. Biol. Chem., 1996; 271:5776–5879). Results may be expressed in terms of μM or nM α2δ binding affinity.

| Compound | α2δ binding affinity |
| --- | --- |
| CC(N)c1ccccc1C(=O)O.Cl (centres unmarked) [Example 5, 2-(1-Amino-ethyl)-benzoic acid hydrochlorid salt] | 270 nM |
| Cl.NCc1ccc(Cl)cc1-c1noc(=O)[nH]1 [Example 7, 3-(2-Aminomethyl-5-chloro-phenyl)-4-H-[1,2,4]loxadiazol-5-one hydrochloride salt] | 8000 nM |

Next, values leading:

| α2δ binding affinity | Compound |
| --- | --- |
| 435 nM | Cl.NCc1cc(Cl)c(Cl)cc1C(=O)O [Example 2, 2-Aminomethyl-4,5-dichloro-benzoic acid hydrochloride salt] |
| 100 nM | Cl.NCc1ccc(Cl)cc1C(=O)O [Example 1, 2-Aminomethyl-5-chloro-benzoic acid hydrochloride salt] |
| 383 nM | Cl.NCc1cccc(Cl)c1C(=O)O [Example 4, 2-Aminomethyl-6-chloro-benzoic acid hydrochloride salt] |
